Experimental data: ChEMBL document CHEMBL3425442, “Tetrahydroindazoles as Interleukin-2 Inducible T-Cell Kinase Inhibitors. Part II. Second-Generation Analogues with Enhanced Potency, Selectivity, and Pharmacodynamic Modulation in Vivo” (J Med Chem, 2015)
≈ marks a conversion by molar mass, not a printed value. Where “and” joins values, the source holds several entries; their conditions need not be identical. Identical values can stand only once.

Columns and labels:
[1] = Cytotoxicity against human Jurkat T cells without TCR stimulation assessed as cell viability by ATPlite assay
[2] = target: Tyrosine-protein kinase Lck (Homo sapiens, UniProt P06239); assay: Inhibition of LCK (unknown origin)
Homo sapiens [3] = species: Homo sapiens; assay: Selectivity ratio of Ki for LCK (unknown origin) to Ki for GST-tagged recombinant full length human ITK
physchem = conditions: aqueous phosphate buffer, pH 7.4, Kinetic_solubility
Description: Kinetic solubility of the compound in aqueous phosphate buffer at pH 7.4 after 24 hrs by HPLC/CLND method

[4] = Permeability in MDCK cells; assay type: ADME, cell-based, Canis lupus familiaris; conditions: dog, read-out: permeability
[5] = Plasma protein binding in human; assay type: ADME, cell-free; conditions: read-out: PPB (converted)
[6] = 1-octanol-phosphate buffer partition coefficient, log D of the compound at pH 7.4 by UPLC/MS/MS analysis
hERG (KCNH2) = hERG (KCNH2) (Homo sapiens, UniProt Q12809); assay: Inhibition of human ERG at 10 uM by patch clamp assay relative to control
Hepatocyte = assay: Cytotoxicity against hepatocytes (unknown origin)
Mus musculus [7] = assay: Reduction in serum IL-13 level in C57/Bl6 mouse at 100 mg/kg, ip administered for 1 hr followed by anti-CD3 treatment measured after 1.5 hrs relative to vehicle-treated control; assay type: functional; design: scale not given: the % may be the effect or the level left; conditions: route intraperitoneal
[8] = Plasma concentration in C57/Bl6 mouse at 200 mg/kg, ip administered for 1 hr followed by anti-CD3 treatment measured at 2.5 hrs; assay type: ADME, organism-based; design: dose 200 mg/kg, route intraperitoneal
Mus musculus [9] = assay: Reduction in serum IL-2 level in C57/Bl6 mouse at 200 mg/kg, ip administered for 1 hr followed by anti-CD3 treatment measured after 1.5 hrs relative to vehicle-treated control; assay type: functional; conditions: route intraperitoneal
Mus musculus [10] = assay: Reduction in serum IL-2 level in C57/Bl6 mouse at 100 mg/kg, ip administered for 1 hr followed by anti-CD3 treatment measured after 1.5 hrs relative to vehicle-treated control; assay type: functional; design: scale not given: the % may be the effect or the level left; conditions: route intraperitoneal
Mus musculus [11] = assay: Reduction in serum IL-13 level in C57/Bl6 mouse at 200 mg/kg, ip administered for 1 hr followed by anti-CD3 treatment measured after 1.5 hrs relative to vehicle-treated control; assay type: functional; design: scale not given: the % may be the effect or the level left; conditions: route intraperitoneal
Mus musculus [12] = assay: Reduction in serum IL-13 level in C57/Bl6 mouse at 30 mg/kg, ip administered for 1 hr followed by anti-CD3 treatment measured after 1.5 hrs relative to vehicle-treated control; assay type: functional; design: scale not given: the % may be the effect or the level left; conditions: route intraperitoneal
Mus musculus [13] = assay: Reduction in serum IL-2 level in C57/Bl6 mouse at 30 mg/kg, ip administered for 1 hr followed by anti-CD3 treatment measured after 1.5 hrs relative to vehicle-treated control; assay type: functional; design: scale not given: the % may be the effect or the level left; conditions: route intraperitoneal
Mus musculus [14] = assay: Reduction in serum IL-2 level in ip dosed C57/Bl6 mouse administered for 1 hr followed by anti-CD3 treatment measured after 1.5 hrs; assay type: functional, organism-based
[15] = target: 5-hydroxytryptamine receptor 2A (Homo sapiens) (UniProt P28223); assay: Binding affinity to human 5HT-2A receptor assessed as protein-compound complex at 10 uM relative to control
[16] = target: D(2) dopamine receptor (Homo sapiens) (UniProt P14416); assay: Binding affinity to human dopamine D2S receptor assessed as protein-compound complex at 10 uM relative to control
Homo sapiens [17] = species: Homo sapiens; assay: Binding affinity to L-type calcium channel verapamil binding site (unknown origin) assessed as protein-compound complex at 10 uM relative to control
[18] = target: Sodium-dependent serotonin transporter (Homo sapiens) (UniProt P31645); assay: Binding affinity to human 5-HT transporter assessed as protein-compound complex at 10 uM relative to control
[19] = target: D(1A) dopamine receptor (Homo sapiens) (UniProt P21728); assay: Binding affinity to human dopamine D1 receptor assessed as protein-compound complex at 10 uM relative to control
D(1A) dopamine receptor (Homo sapiens), sequence (P21728 whole entry): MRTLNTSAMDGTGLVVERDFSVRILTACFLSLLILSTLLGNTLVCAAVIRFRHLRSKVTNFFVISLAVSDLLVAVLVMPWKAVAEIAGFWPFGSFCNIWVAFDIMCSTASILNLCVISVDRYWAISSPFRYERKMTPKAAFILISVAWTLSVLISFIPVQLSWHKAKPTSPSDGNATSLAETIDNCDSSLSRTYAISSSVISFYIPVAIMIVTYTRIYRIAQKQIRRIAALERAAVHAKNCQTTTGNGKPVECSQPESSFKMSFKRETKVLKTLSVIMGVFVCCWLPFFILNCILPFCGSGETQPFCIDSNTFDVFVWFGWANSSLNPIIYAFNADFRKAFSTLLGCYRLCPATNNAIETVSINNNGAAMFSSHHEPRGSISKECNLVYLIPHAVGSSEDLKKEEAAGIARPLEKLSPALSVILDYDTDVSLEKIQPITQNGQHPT

Tyrosine-protein kinase Lck, sequence (P06239 whole entry): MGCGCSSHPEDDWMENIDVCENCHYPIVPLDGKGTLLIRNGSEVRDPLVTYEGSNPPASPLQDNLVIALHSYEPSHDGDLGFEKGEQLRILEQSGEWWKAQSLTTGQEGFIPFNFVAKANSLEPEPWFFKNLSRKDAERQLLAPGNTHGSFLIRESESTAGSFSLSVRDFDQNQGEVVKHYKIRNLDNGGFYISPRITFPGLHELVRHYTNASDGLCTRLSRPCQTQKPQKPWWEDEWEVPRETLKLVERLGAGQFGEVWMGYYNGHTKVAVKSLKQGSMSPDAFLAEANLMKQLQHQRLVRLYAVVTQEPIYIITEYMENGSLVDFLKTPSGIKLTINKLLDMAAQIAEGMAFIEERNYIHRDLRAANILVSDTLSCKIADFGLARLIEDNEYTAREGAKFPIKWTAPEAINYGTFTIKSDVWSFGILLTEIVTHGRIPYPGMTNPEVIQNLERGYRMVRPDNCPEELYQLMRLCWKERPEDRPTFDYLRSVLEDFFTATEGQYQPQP
hERG (KCNH2), sequence (Q12809 whole entry): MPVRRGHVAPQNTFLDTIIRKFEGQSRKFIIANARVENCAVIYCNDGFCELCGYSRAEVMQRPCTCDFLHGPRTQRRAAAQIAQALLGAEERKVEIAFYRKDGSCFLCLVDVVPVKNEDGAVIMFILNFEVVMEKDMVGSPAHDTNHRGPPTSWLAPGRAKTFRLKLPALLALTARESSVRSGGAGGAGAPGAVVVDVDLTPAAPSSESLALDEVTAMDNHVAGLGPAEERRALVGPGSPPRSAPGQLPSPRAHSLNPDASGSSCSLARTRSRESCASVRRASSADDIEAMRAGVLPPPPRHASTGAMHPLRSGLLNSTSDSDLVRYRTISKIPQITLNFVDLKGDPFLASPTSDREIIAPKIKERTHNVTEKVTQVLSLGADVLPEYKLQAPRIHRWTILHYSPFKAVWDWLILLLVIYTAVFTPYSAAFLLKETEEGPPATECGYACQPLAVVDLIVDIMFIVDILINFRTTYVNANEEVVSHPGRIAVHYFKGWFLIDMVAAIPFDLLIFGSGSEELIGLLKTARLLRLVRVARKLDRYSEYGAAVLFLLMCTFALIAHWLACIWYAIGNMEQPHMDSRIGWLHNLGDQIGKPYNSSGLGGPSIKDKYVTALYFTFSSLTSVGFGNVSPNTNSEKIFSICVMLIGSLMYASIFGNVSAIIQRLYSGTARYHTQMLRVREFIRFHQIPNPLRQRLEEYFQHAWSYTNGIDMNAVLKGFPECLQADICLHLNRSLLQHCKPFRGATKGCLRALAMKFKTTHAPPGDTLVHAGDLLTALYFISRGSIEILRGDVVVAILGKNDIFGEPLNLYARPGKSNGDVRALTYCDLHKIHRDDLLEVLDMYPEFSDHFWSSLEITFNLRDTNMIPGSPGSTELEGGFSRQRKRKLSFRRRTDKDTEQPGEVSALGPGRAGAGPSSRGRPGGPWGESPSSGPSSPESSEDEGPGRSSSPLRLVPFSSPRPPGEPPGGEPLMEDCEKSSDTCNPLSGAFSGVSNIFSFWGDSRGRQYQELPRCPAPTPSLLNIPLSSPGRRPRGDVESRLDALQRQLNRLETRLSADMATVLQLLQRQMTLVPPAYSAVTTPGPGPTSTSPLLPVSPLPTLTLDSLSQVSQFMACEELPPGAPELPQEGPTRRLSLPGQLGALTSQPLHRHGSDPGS
5-hydroxytryptamine receptor 2A (Homo sapiens), sequence (P28223 whole entry): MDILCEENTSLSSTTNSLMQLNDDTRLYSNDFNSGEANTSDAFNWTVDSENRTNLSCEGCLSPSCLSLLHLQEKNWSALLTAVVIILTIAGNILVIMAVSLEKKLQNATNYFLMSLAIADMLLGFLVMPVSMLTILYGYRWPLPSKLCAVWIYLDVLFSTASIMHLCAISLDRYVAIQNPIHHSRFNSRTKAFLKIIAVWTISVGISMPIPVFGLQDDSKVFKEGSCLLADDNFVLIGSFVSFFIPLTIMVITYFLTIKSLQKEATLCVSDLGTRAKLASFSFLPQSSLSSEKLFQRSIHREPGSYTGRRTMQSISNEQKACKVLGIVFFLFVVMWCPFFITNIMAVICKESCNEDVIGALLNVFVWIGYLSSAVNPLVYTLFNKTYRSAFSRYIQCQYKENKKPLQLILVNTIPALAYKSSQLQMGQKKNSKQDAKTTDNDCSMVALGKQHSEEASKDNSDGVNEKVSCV
D(2) dopamine receptor (Homo sapiens), sequence (P14416 whole entry): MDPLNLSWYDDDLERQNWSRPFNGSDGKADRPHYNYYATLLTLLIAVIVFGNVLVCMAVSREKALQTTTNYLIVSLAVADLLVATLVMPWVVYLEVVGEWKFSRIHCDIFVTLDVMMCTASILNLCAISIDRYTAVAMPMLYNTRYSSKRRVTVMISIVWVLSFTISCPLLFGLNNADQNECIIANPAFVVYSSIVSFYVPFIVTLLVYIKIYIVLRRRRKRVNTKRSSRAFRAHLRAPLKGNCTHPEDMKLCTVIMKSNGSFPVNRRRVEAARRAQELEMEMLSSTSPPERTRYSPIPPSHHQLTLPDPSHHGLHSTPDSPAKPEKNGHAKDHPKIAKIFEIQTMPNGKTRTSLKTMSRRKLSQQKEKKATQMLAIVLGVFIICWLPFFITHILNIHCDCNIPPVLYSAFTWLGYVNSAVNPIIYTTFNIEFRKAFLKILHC
Sodium-dependent serotonin transporter (Homo sapiens), sequence (P31645 whole entry, looked up): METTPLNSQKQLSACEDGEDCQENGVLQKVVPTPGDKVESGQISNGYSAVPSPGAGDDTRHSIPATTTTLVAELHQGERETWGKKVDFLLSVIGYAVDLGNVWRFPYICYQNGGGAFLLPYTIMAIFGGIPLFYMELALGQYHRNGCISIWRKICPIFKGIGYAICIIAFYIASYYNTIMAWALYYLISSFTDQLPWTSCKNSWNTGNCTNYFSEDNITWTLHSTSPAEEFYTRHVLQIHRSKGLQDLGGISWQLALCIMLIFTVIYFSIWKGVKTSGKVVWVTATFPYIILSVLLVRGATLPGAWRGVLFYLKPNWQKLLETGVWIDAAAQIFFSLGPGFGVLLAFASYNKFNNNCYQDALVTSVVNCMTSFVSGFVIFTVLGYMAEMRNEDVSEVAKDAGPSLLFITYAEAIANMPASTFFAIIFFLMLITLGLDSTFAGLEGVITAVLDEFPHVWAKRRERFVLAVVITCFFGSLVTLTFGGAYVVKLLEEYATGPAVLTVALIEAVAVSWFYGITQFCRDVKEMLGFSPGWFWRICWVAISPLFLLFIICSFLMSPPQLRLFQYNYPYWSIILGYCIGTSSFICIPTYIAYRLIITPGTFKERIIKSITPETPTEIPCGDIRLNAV

SMILES | IC50 ([1]; Homo sapiens, Jurkat) | Ki [2] | IC50 ([1]; jurkat) | solubility kinetic at 24 h (physchem) | inhibition at 10 µM (hERG (KCNH2)) | IC50 (Hepatocyte) | further results
CC1(C)CCc2c(C(=O)Nc3cnn([C@@H](CCS(C)(=O)=O)c4ccccc4)c3)n[nH]c2C1 | 57 µM | 1.8 µM |  |  |  |  | Ratio Ki (Homo sapiens [3]): 290
CC1(C)CCc2c(C(=O)Nc3cnn([C@H](c4ccccc4)C4CCCCS4(=O)=O)c3)n[nH]c2C1 (stereo partly specified) | > 50 µM |  | 33 µM | 10 µM (≈ 4.82 µg/mL) |  |  | 
C[C@@]12Cc3[nH]nc(C(=O)Nc4cnn([C@H](c5ccccc5)[C@H]5CCCCS5(=O)=O)c4)c3C[C@@H]1C2(F)F | 12 µM |  |  | 3.9 µM (≈ 2.01 µg/mL) | 6.8% | > 100 µM | Papp [4]: 1.5 ×10⁻⁶ cm/s; fraction unbound [5]: 0.03; logD [6]: 2.8
CC1(C)CCc2c(C(=O)Nc3cnn([C@H](c4ccccc4)C4CC[S+]([O-])CC4)c3)n[nH]c2C1 (stereo partly specified) | 20 µM |  | 30 µM | 45 µM (≈ 21 µg/mL) | 3.6% | 83 µM | Activity (Mus musculus [7]): 95%; concentration at 2.5 h [8]: 80 µM; Papp [4]: 1.9 ×10⁻⁶ cm/s; %max (Mus musculus [9]): 98%; Activity (Mus musculus [10]): 90%; fraction unbound [5]: 0.06; logD [6]: 3.6; Activity (Mus musculus [11]): 100%; Activity (Mus musculus [12]): 62%; Activity (Mus musculus [13]): 55%; Activity (Mus musculus [14]): Dose-dependent effect
C[C@@]12Cc3[nH]nc(C(=O)Nc4cnn([C@H](c5ccccc5)C5CCS(=O)(=O)CC5)c4)c3C[C@@H]1C2 | 29 µM |  |  | 6.5 µM (≈ 3.12 µg/mL) | 34% | > 100 µM | Papp [4]: 4.4 ×10⁻⁶ cm/s; fraction unbound [5]: 0.03; logD [6]: 3.5
CC1(C)CCc2c(C(=O)Nc3cnn([C@@H](CS(C)(=O)=O)c4ccccc4)c3)n[nH]c2C1 | 42 µM | > 2.5 µM |  | 4.5 µM (≈ 1.99 µg/mL) |  |  | 
CC1(C)CCc2c(C(=O)Nc3cnn([C@H](c4ccccc4)C4CCCS(=O)(=O)C4)c3)n[nH]c2C1 (stereo partly specified) |  |  | 44 µM and 20 µM | 11 µM (≈ 5.3 µg/mL) |  |  | 
CN(C)CC[C@@H](c1ccccc1)n1cc(NC(=O)c2n[nH]c3c2CCC(C)(C)C3)cn1 | 4.7 µM | 0.34 µM |  |  | 88% | 6.2 µM | Activity [15]: 96%; Activity [16]: 96%; Activity (Homo sapiens [17]): 88%; Activity [18]: 102%; Activity [19]: 96%
CC1(C)CCc2c(C(=O)Nc3cnn([C@H](c4ccccc4)C4CCS(=O)(=O)C4)c3)n[nH]c2C1 (stereo partly specified) | 27 µM |  | > 50 µM |  |  |  | 
CC1(C)CCc2c(C(=O)Nc3cnn([C@H](c4ccccc4)C4CCS(=O)(=O)CC4)c3)n[nH]c2C1 | 29 µM |  |  | 4.3 µM (≈ 2.07 µg/mL) |  |  | 
CC12Cc3[nH]nc(C(=O)Nc4cnn(Cc5ccccc5)c4)c3CC1C2 (stereo unspecified) |  | 1.4 µM |  |  |  |  | 
CC1(C)CCc2c(C(=O)Nc3cnn(Cc4ccccc4)c3)n[nH]c2C1 |  | 1.8 µM |  |  |  |  | 
